Several values for one entry are separate records, joined by “and”; a condition that tells them apart may be missing. Identical values can stand only once.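 Results reflect a 48-hour exposure of cells in 96-well plates to compound at five concentrations. At the GI50, growth is halved. TGI: total growth inhibition.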 *1 amine or outer side, *2 acyl side, *3 side chain or, on linkers, in order; H or OH if unused. Where a SMILES comes first, the peptide text is derived from it. Bridges are numbered along the chain shown (N, C = ends). [ ]: non-standard residue; d: D form. The star is where a group is joined. X38 = CC[C@H](C)[C@@H](N[*:1])[C@@H](O)CC(=O)[*:2]; NMeY = CN[C@@H](Cc1ccc(O)cc1)C(=O)O; dNMeL = CN[C@H](CC(C)C)C(=O)O; Hiv = CC(C)[C@H](O)C(=O)O; Pyruvoyl = CC(=O)C(=O)*
Legend:
Assay in all cases: DTP human tumour cell line panel, 48 h
[1] = test system: A549 NSCLC
[2] = test system: ACHN renal
[3] = test system: HCT-116 colon
[4] = test system: HOP-62 NSCLC
[5] = test system: M14 melanoma
[6] = test system: MALME-3M melanoma
[7] = test system: MDA-MB-231 breast
[8] = test system: OVCAR-4 ovarian
[9] = test system: OVCAR-8 ovarian
[10] = test system: SF-268 CNS

Row | Structure (SMILES) | TGI [1] [µM] | TGI [2] [µM] | TGI [3] [µM] | TGI [4] [µM] | TGI [5] | TGI [6] [µM] | TGI [7] [µM] | TGI [8] [µM] | TGI [9] [µM] | TGI [10] [µM] | GI50 [2] [µM] | GI50 [5] [µM] | GI50 [6] [µM] | GI50 [7] [µM] | GI50 [8] [µM] | GI50 [9] [µM] | GI50 [10] [µM]
1 | C=C1C(=O)C([Si](C)(C)C)=C2C=C(C)C3(CC3)C12C (stereo not given) | > 100 | > 100 | > 100 | > 100 | > 100 µM | 78.7 | 84.6 | > 100 | > 100 | > 100 | – | – | – | – | – | – | –
2 | COc1ccc(/C=C(\Cl)c2ccc(OC)c(OC)c2)cc1OC | > 100 | > 100 | > 100 | > 100 | > 100 µM | > 100 | > 100 | > 100 | > 100 | > 100 | – | – | – | – | – | – | –
3 | COc1ccc(Br)c2c1CC(C(=O)O)CC2 (stereo not given) | > 100 | > 100 | > 100 | > 100 | > 100 µM | > 100 | > 100 | > 100 | > 100 | > 100 | – | – | – | – | – | – | –
4 | C/C(=N\N)C(CN(C)C)C(c1ccccc1)c1c(O)c2ccccc2oc1=O (stereo not given) | > 100 | > 100 | > 100 | > 100 | > 100 µM | > 100 | > 100 | > 100 | > 100 | > 100 | – | – | – | – | – | – | –
5 | O=c1c2cc(S(=O)(=O)Nc3ccccc3Cl)ccc2ncn1NS(=O)(=O)c1ccc(Br)cc1 | > 37.5 | > 37.5 | > 37.5 | > 37.5 | > 37.5 µM | > 37.5 | > 37.5 | > 37.5 | > 37.5 | > 37.5 | – | – | – | – | – | – | –
6 | CCOC(=O)c1nc2ccc(C(F)(F)F)cc2nc1NCc1ccc(Cl)c(Cl)c1 | > 100 | 68 | > 100 | 52.1 | > 100 µM | 99.1 | > 100 | 48.6 | > 100 | > 100 | – | – | – | – | – | – | –
7 | Cc1c2ccncc2cc2c1sc1ccncc12 | 5.3 | 4.22 | 13.1 | 8.37 | 13.5 µM | 15 | 21.9 | 25.2 | 23.7 | 14.4 | – | – | – | – | – | – | –
8 | COc1cc2cc(C(=O)N3CC(CCl)c4c3cc(NC(=O)C(C)(C)c3ccccc3[N+](=O)[O-])c3ccccc43)[nH]c2c(OC)c1OC (stereo not given) | > 600 | – | > 600 | 0.862 | 9.11 µM and 33.2 µM | – | – | – | – | – | 2.63 | 6.24 | 103 | > 600 | 62.1 | 6.58 | 19.5
9 | O=S1(=O)c2cnccc2NC(=NCc2cccc3ccccc23)N1c1ccccc1 | > 100 | > 100 | > 100 | > 100 | > 100 µM | > 100 | > 100 | > 100 | > 100 | > 100 | – | – | – | – | – | – | –
10 | NC(=O)C(Nc1c(Cl)cccc1Cl)c1cc2cc(Br)ccc2nc1Cl (stereo not given) | > 100 | > 100 | > 100 | > 100 | > 100 µM | > 100 | > 100 | > 100 | > 100 | > 100 | – | – | – | – | – | – | –
11 | Clc1cccc(Cl)c1C=NC12CC3CC(CC(C3)C1)C2 | > 10 | > 10 | > 10 | > 10 | > 10 µM | > 10 | > 10 | > 10 | > 10 | > 10 | – | – | – | – | – | – | –
12 | O=C(NC(C(F)(F)F)(C(F)(F)F)P(=O)(c1ccccc1)c1ccccc1)C(C(F)(F)F)C(F)(F)F | > 100 | 30.9 | 39.1 | > 100 | 36.3 µM | 33.6 | 59.2 | > 100 | 72.8 | > 100 | – | – | – | – | – | – | –
13 | O=C1c2cc3c(cc2CC12Cc1cc4c(cc1C2=O)CCCC4)CCCC3 | > 100 | > 100 | > 100 | 57.1 | > 100 µM | > 100 | 77.1 | 46.7 | > 100 | > 100 | – | – | – | – | – | – | –
14 | CC1=C(C(=O)Nc2cccc3c2C(=O)NC3=O)CC(C(=O)Nc2cccc3c2C(=O)NC3=O)=C(C)N1 | > 100 | > 100 | > 100 | > 100 | > 100 µM | > 100 | > 100 | > 100 | – | > 100 | – | – | – | – | – | – | –
15 | NCCCNCCCNCCCN | > 100 | > 100 | > 100 | > 100 | > 100 µM | > 100 | > 100 | > 100 | > 100 | 8.96 | – | – | – | – | – | – | –
16 | CC[C@H](C)[C@H]1NC(=O)[C@@H](NC(=O)[C@@H](CC(C)C)N(C)C(=O)[C@@H]2CCCN2C(=O)C(C)=O)[C@@H](C)OC(=O)[C@H](Cc2ccc(OC)cc2)N(C)C(=O)[C@@H]2CCCN2C(=O)[C@H](CC(C)C)NC(=O)[C@H](C(C)C)OC(=O)C[C@@H]1O (Pyruvoyl-P[dNMeL]T[X38][Hiv]LP[NMeY](Me); ester 3-C) | 0.0618 | 0.438 | 0.12 | 0.0728 | 0.0261 µM | 0.107 | 0.112 | 0.351 | 0.342 | 0.0983 | – | – | – | – | – | – | –
17 | Cc1ccc(NCC2CC/C(=C\c3ccc(Cl)cc3)C2=O)cc1 (stereo not given) | > 100 | > 71.5 | 26 | > 82.6 | 28.9 µM | 38 | 28.4 | > 80.7 | 36.1 | 56.4 | – | – | – | – | – | – | –
18 | Cc1nn2c(=O)c([N+](=O)[O-])c(/C=C/c3ccccc3)nc2s1 | > 79.1 | 74.9 | 15.4 | > 72 | > 53.9 µM | > 71.7 | > 100 | > 100 | 5.26 | > 100 | – | – | – | – | – | – | –
19 | Oc1ccccc1/C=N/Nc1nnc2c3ccccc3c3ccccc3c2n1 | > 100 | > 100 | > 100 | > 100 | > 100 µM | > 100 | > 100 | > 100 | > 100 | > 100 | – | – | – | – | – | – | –
20 | c1csc(-c2cscc2-c2ccsc2)c1 | > 100 | > 100 | > 100 | > 100 | > 100 µM | 95 | > 100 | > 100 | > 100 | > 100 | – | – | – | – | – | – | –
21 | C[C@@]12C=CC3C/C(=N\C(N)=S)C=C(CCCC4OCCO4)[C@]3(CC1)C2 (stereo not given in full) | 59.7 | 92.2 | 26.8 | 92.3 | 30.9 µM | 37.6 | 43.1 | 99.2 | 68.1 | 87.8 | – | – | – | – | – | – | –
22 | Cc1c2cnccc2c(C)c2c1[nH]c1ccc(O)cc12 | > 10 | 8.29 | 2.2 | 2.75 | > 10 µM | 8.28 | 4.13 | 8 | 3.41 | > 10 | – | – | – | – | – | – | –
23 | CCOC(=O)/C(C)=C\[C@@]1(C)O[C@@H](C)[C@@](C)(OC(C)=O)[C@@H]1OC(C)=O | > 100 | > 100 | > 100 | > 100 | > 100 µM | > 100 | > 100 | > 100 | > 100 | > 100 | – | – | – | – | – | – | –
24 | C[C@H]1[C@H](C)N(Cc2ccccc2)P(=O)(C(O)/C=C/c2ccccc2)N1Cc1ccccc1 (stereo not given in full) | > 25 | > 25 | 11.6 | > 25 | 9.05 µM | 13.4 | 15.1 | 15 | > 25 | > 25 | – | – | – | – | – | – | –
25 | CCCCCC(=O)Nc1n[nH]nc1C(N)=O | > 100 | > 100 | > 100 | > 100 | > 100 µM | > 100 | > 100 | > 100 | > 100 | > 100 | – | – | – | – | – | – | –
26 | O=C1CC(=O)NC(=NN2C(=O)CSC2c2ccc(Cl)c(Cl)c2)N1 (stereo not given) | > 100 | > 100 | > 100 | > 100 | > 100 µM | > 100 | > 100 | > 100 | > 100 | > 100 | – | – | – | – | – | – | –
27 | CCOC(=O)/C(O)=C(/C=N\C(=S)Nc1ccccc1Cl)C(=O)OCC | > 100 | > 100 | > 100 | > 100 | > 100 µM | > 100 | > 100 | > 100 | > 100 | > 100 | – | – | – | – | – | – | –
28 | Fc1cc(C2=C[C@H](c3ccc(Cl)cc3)NC(=S)N2)c(Cl)cc1Cl | > 100 | > 100 | > 100 | > 100 | > 100 µM | > 100 | 88.7 | > 100 | > 100 | > 100 | – | – | – | – | – | – | –
29 | O=C(O)C1C(C(=O)O)C2C(=O)C=CC1N2Cc1ccccc1 (stereo not given) | 22.4 | 14.2 | 15.2 | 10.5 | 5.99 µM | 8.73 | 14.4 | 16.3 | > 100 | 11.3 | – | – | – | – | – | – | –
30 | CC1C2CC(CC(=O)N2)C1(C)C (stereo not given) | > 100 | > 100 | > 100 | > 100 | > 100 µM | > 100 | > 100 | > 100 | > 100 | > 100 | – | – | – | – | – | – | –

Reference: PubChem BioAssay (NCI)
